{"source": "patent US20120115742A1", "about": "“METHODS FOR IDENTIFICATION” (Cambridge Enterprise Limited, priority 2009, published 2012)", "key": {"[1]": {"test_system": "rat peripheral blood leukocytes", "test": "Rat chemokine-induced PBMC migration assay", "format": "cell-based", "experimental": "Similarly, where human Panc-2H4 cells are used to determine the effect of agents on classical sstr2 targets, the result is compared with the effect of the same agents on chemokine-induced migration of human THP-1 cells. […] For this reason, the ratio of “classical” to “BSCI” activity in Table 3 is calculated separately for rat and human."}, "Jurkat-D3B cells": {"test_system": "Jurkat-D3B cells", "test": "SDF-1α induced migration of Jurkat-D3B cells expressing sstr2", "format": "cell-based, human", "experimental": "Methods: Total mRNA was prepared from Panc-1 cells (a human pancreas cell line which is well known to express high levels of sstr2) using the RNAqueous 4PCR kit (Ambion, Cat code #1914) in accordance with the manufacturer's instructions. The mRNA was then reverse transcribed (using the RETROscript kit; Ambio) to yield a cDNA preparation. A full length cDNA of the sstr2 gene was then obtained by PCR (using a Peltier PTC-200 thermal cycler using the following cycle times and conditions: 94° C. for 2 min, followed by 30 cycles of 94° C., for 30 sec, 55° C. for 30 sec, 72° C. for 1 min and finally 72° C. for 10 min), and isolated by preparative gel electrophoresis. The sequence of the sstr2 cDNA was confirmed by sequencing. The sstr2 cDNA was treated with EcoRI and Xhol to generate sticky ends, which allowed directional cloning into the polylinker of the plasmid pcDNA3.1+ (Invitrogen) followed by ligation ([…] ligation reactions were run with 400 T4 DNA ligase (New England Biolabs) and the maximal amounts of DNA with an insert:plasmid ratio of 3:1 in ligase buffer incubated overnight at 13° C.). […]\nA number of individual cell lines were obtained in this way, which expressed significant levels of sstr2 on the cell surface, detected by flow cytometry using the human-sstr2 antibody (Sigma, 50694; see Example 3 for details of the flow cytometry protocol used). […]"}, "THP-1 cells": {"test_system": "THP-1 cells", "test": "MCP-1 induced THP-1 cell migration (Transwell/ChemoTx)", "procedure": "Leukocyte migration was measured using the 96-well format micro Transwell® assay system from Neuroprobe (Gaithersburg, Md., USA). In principle, this assay consists of two chambers separated by a porous membrane. The chemoattractant is placed in the lower compartment and the cells are placed in the upper compartment.\nFirst, the cell suspension to be placed in the upper compartment was prepared. The THP-1 cells were pelleted by centrifugation (770×g; 4 mins) and washed with Geys Balanced Salt Solution with 1 mg/ml BSA (GBSS+BSA). This wash was then repeated, and the cells re-pelleted before being resuspended in a small volume of GBSS+BSA for counting, for example using a standard haemocytometer.\nThis ensured that there were 100,000 THP-1 cells in each 25 μl of the solution to be placed in the upper chamber of the plate.\nTo the third pot, GBSS+BSA plus vehicle as appropriate was added so that the volumes in three pots are equal, acting as a control.\nNext, the chemoattractant solution to be placed in the lower compartment was prepared. […] This solution was divided into three pots, as for the cell suspension. To one pot, the BSCI was added to the same final concentration as was added to the cell suspension, in the second pot the BSCI and the sstr2 antagonist were both added at the same concentration as previously added to the cell suspension, while to the remaining pot GBSS+BSA plus vehicle as appropriate was added so that the volumes in the three pots were equal.\nOnce the chemoattractant solutions for the lower wells and cell solutions for the upper chambers were prepared, the migration chamber was assembled. 29 μl of the appropriate chemoattractant solution was placed into the lower well of the chamber. Assays were performed with at least triplicate determinations of each condition. Once all the lower chambers were filled, the porous membrane was applied to the chamber in accordance with the manufacturer's instructions. Finally, 25 μl of the appropriate cell solution was applied to each upper chamber. A plastic lid was placed over the entire apparatus to prevent evaporation.\nThe assembled chamber was incubated at 37° C., 5% CO2, for 2 hours.\nAt the end of the incubation, the liquid cell suspension was gently removed from the upper chamber, 20 μl of ice-cold 20 mM EDTA in PBS was added to the upper chamber, and the apparatus was incubated at 4° C. for 15 mins. This procedure caused any cells adhering to the underside of the membrane to fall into the lower chamber.\nAfter this incubation the filter was carefully flushed with GBSS+BSA to wash off the EDTA, and then the filter was removed.\nThe number of cells migrated into the lower chamber under each condition can then be determined by a number of methods, including direct counting, labelling with fluorescent or radioactive markers or through the use of a vital dye. Typically, we utilised the vital dye MTT. 3 μl of stock MTT solution were added to each well, and then the plate was incubated at 37° C. for 1-2 hours during which time dehydrogenase enzymes within the cells converted the soluble MTT to an insoluble blue formazan product that could be quantified spectrophotometrically.\nIn parallel, an 8-point standard curve was set up. Starting with the number of cells added to each upper chamber (100,000) and going down in 2-fold serial dilutions in GBSS+BSA, the cells were added to a plate in 25 with 3 μl of MTT stock solution added. The standard curve plate was incubated along side the migration plate. At the end of this incubation, the liquid was carefully removed from the lower chambers, taking care not to disturb the precipitated formazan product.\nThe MCP-1 stimulated migration was determined by subtracting the average number of cells that reached the lower compartment in wells where no MCP-1 was added from the average number of cells that reached the lower compartment where MCP-1 was present at 25 ng/ml."}, "Panc-2H4 cells": {"test_system": "Panc-2H4 cells", "test": "Human Panc-2H4 insulin suppression assay", "format": "cell-based", "source_text": "(§1) Two different assays for “classical” sstr2 functions were adopted: (1) cultured foetal rat pituitary cells secreted growth hormone which is inhibited by sstr2 agonists in a dose-dependent fashion and (2) selected glucose-sensitive sub-clones of the human Panc-1 cell line secrete insulin which is inhibited by sstr2 agonists in a dose-dependent fashion.\nGlucose-sensitive sub-clones of the human Panc-1, a cell line derived from a pleiomorphic epithelioid carcinoma of the exocrine pancreas, were obtained essentially as described by Hamil et al. (2008) Biomed. Sci. Instrum. 44:441-6. Briefly, Panc-1 cells were subcultured in 24 well plates, and the medium was supplemented with an additional 5% glucose. […] The resulting sub-lines were then tested for glucose sensitivity by preparing wells of a 96-well plate (5×10^4 cells per well) which were then exposed to cultured medium containing a range of glucose concentrations (low glucose DMEM, DMEM, DMEM+1% glucose, DMEM+2.5% glucose and DMEM+5% glucose). After 24 hrs incubation, the conditioned medium was collected and assayed for insulin secretion by ELISA (Linco; cat# EZHI-14K) in accordance with the manufacturer's instructions. […] Further 96 well plates were prepared using Panc-2H4 (5×10^4 cells per well) in DMEM. After 24 hrs, the medium was switched to DMEM+5% glucose containing various test agents at various concentrations (triplicate wells per condition). After a further 24 hrs, the conditioned medium was harvested and the concentration of insulin was determined by ELISA as described above.\n(§2) Results were reported as the mean SD, expressed as the fold change from cells in the presence of vehicle only."}, "TNF-alpha": {"test_system": "TNF-alpha", "test": "Sub-lethal endotoxemia model, serum TNF-alpha after LPS", "format": "in vivo, mouse", "conditions": "dose-dependent; BN83250 s.c., valerolactam oral gavage", "experimental": "We selected the sub-lethal endotoxemia model in mouse, because this has been well characterised in our laboratory (see for example Fox et al. (2002) J. Med. Chem. 45:360-70; Fox et al. (2005) J. Med. Chem. 48:867-74). The extent of systemic inflammation in response to a single intraperitoneal injection of bacterial lipopolysaccharide (LPS) can be estimated by measuring serum TNF-alpha 2 hours post challenge.\nMethods: Mice (CD1 strain; adult males; 6 per group) were treated with BSCI (in an appropriate vehicle) or with vehicle alone by an appropriate route. […] Simultaneously, one set of mice at each BSCI concentration received BIM 23627 at 4 mg/animal (120 mg/kg) by sub-cutaneous injection (a treatment condition known to suppress classical sstr2-mediated signalling, such as GH release, in rats; Tulipano et al. (2002) 143:1218-24). Between 30 mins and 1 hour after dosing (a period when a maximal plasma concentration of BSCI has been achieved), the inflammatory challenge was elicited by intraperitoneal injection of 750 μg of LPS (Sigma; L4130 lot#024K4077; 900,000 EU/mg).\nAfter a further 2 hours, the animals were sacrificed by CO2 asphyxiation, and blood was drawn by cardiac puncture. Serum was prepared by conventional methods, and the level of TNF-alpha in serum was measured using an ELISA (R&D Systems; Murine Quantikine code# MTA00) performed in accordance with the manufacturer's instructions."}, "fetal rat pituicytes": {"test_system": "fetal rat pituicytes", "test": "Rat pituicyte GH suppression assay", "format": "cell-based", "conditions": "Table 3; suppression compared to vehicle", "source_text": "as §1\nMethods: Cultures of fetal rat pituicytes were established exactly as previously described (Murray et al. (2004) J. Clin. Endocrinol. Metab. 89:3027-32) by enzymatic dispersion. After 48 hrs in low glucose DMEM plus 10% FCS, cells in 48 well plates (5×10^4 cells per well) were washed for 4 hrs in serum-free DMEM and then incubated with test agents at various concentrations for a further 24 hrs in serum-free DMEM. At the end of this period, the conditioned medium was harvested, any cell debris removed by centrifugation and assayed for […] using a commercially available ELISA (Linco; cat# EZRMGH-45K) in accordance with the manufacturer's instructions.\nas §2"}}}
{"smiles": "CC(C)(C)C(=O)N[C@H]1CCCNC1=O", "note": "[Valerolactam, (S)-3-(2′2′-dimethylpropionoylamino)-tetrahydropyridin-2-one]", "values": [{"measurement": "“Classical”:“BSCI” potency ratio, Rat", "setting": "[1]; PBMC migration ED50 versus pituicyte GH ED50", "result": 0.0009}, {"measurement": "Rat chemokine-induced PBMC migration assay Max effect", "setting": "[1]; Table 3", "result": 100, "unit": "%"}, {"measurement": "sensitivity of Jurkat-D3B migration", "setting": "Jurkat-D3B cells", "result": "sensitive to inhibition"}, {"measurement": "potency relative to BN83253", "setting": "THP-1 cells; MCP-1 induced THP-1 migration, FIG. 5 versus FIG. 4", "result": "20-50 fold"}, {"measurement": "“Classical”:“BSCI” potency ratio, Human", "setting": "THP-1 cells; THP-1 migration ED50 versus Panc-2H4 insulin ED50", "result": "<0.00005"}, {"measurement": "Human chemokine-induced THP-1 migration assay Max effect", "setting": "THP-1 cells; Table 3", "result": 100, "unit": "%"}, {"measurement": "EC50", "setting": "Panc-2H4 cells; Table 3, read-out: Human Panc-2H4 insulin suppression assay ED50", "result": "> 1000", "unit": "nM"}, {"measurement": "Human Panc-2H4 insulin suppression assay Max effect", "setting": "Panc-2H4 cells; Table 3, suppression compared to vehicle", "result": "<10", "unit": "%"}, {"measurement": "inhibition of insulin secretion by Panc-2H4", "setting": "Panc-2H4 cells; highest concentrations tested", "result": "None of these agents inhibited insulin secretion"}, {"measurement": "inhibition of LPS-induced systemic inflammation", "setting": "TNF-alpha", "result": "dramatically inhibited"}, {"measurement": "Rat pituicyte GH suppression assay Max effect", "setting": "fetal rat pituicytes", "result": 61, "unit": "%"}]}
